Structures are written as SMILES. Entries after “also recorded” stand apart in the source; their conditions may differ.

In this assay the target is T1, HDAC6F (Homo sapiens, UniProt Q9UBN7).
T1 construct: made in house; host or cells: TAg Jurkat cells, transient transfection, anti-FLAG M2 immunoprecipitation
T1 sequence (Q9UBN7 1-1215): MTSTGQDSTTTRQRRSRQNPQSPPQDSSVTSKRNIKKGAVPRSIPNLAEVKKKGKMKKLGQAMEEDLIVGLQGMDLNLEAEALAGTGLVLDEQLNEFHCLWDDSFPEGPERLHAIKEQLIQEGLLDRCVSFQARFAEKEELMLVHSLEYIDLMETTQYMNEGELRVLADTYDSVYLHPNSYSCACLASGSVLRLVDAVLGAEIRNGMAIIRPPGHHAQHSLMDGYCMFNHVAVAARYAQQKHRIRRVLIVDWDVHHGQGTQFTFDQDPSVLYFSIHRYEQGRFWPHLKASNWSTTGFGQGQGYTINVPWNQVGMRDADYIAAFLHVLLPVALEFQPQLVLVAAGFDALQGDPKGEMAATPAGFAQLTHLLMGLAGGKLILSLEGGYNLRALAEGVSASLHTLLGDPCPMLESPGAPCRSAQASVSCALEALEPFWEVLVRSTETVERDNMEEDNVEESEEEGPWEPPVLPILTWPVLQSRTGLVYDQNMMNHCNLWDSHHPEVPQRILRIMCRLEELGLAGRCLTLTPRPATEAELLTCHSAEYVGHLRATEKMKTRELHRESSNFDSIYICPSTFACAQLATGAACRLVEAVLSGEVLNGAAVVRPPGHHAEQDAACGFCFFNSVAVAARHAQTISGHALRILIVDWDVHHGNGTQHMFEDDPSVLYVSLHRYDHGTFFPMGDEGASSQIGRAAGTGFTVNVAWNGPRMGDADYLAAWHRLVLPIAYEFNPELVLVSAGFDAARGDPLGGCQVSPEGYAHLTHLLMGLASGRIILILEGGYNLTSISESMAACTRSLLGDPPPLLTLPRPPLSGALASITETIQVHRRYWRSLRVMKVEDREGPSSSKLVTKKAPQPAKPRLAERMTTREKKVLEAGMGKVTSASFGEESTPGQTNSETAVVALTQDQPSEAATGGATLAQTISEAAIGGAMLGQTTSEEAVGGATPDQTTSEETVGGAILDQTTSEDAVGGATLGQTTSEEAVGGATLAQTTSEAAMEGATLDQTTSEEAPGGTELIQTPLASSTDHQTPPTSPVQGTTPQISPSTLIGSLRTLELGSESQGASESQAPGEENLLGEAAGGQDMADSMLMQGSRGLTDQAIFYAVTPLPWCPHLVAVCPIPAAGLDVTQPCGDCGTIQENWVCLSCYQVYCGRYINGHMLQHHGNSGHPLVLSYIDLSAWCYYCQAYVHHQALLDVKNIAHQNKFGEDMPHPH
Put plainly: in vitro tubulin deacetylase (TDAC) assay, immunoprecipitated wild-type HDAC6F, MAP-stabilized tubulin. The class given is biochemical. The conditions noted are these: TSA 300 nM or 1 μM; tubacin, niltubacin, trapoxin B 1 μM. The source says: Tubulin and MAPs were isolated from bovine brain as described [See http://mitchison.med.harvard.edu/protocols/tubprep.html]. Whole brain and fractions from phosphocellulose chromatography were blotted for HDAC6 and acetylated α-tubulin. Cultured hippocampal neurons from dissociated 1-day old rat brains were transfected with an enhanced green fluorescent protein (EGFP)-actin construct at 4-5 days using the calcium phosphate method [E. N. Star, D. J. Kwiatkowski and V. N. Murthy, Nat. Neurosci. […] K. Miranti and M. E. Greenberg, J. Neurosci. […] Transfected cultures were allowed to grow for at least 48 h before the addition of experimental compounds.
[^3H]Acetate-incorporated histones were isolated from butyrate-treated HeLa cells as described [J. Taunton, C. […] Immunoprecipitates were incubated with acetylated histones and HDAC activity determined by scintillation counting as described [J. Taunton, C. […] TDAC assays were performed with immunoprecipitates using MAP-stabilized microtubules polymerized from MAP-rich tubulin fraction as described [C. […] Reactions were incubated (2 h) at 37° C., then incubated on ice (15 min).

As for `CC(/C=C/C(=O)NO)=C\[C@@H](C)C(=O)c1ccc(N(C)C)cc1` [TSA, trichostatin A, reference compound], the “inhibition of TDAC activity of wild-type HDAC6F” value was “inhibited by TSA (300 nM) or tubacin (1 μM); also recorded: inhibited α-tubulin deacetylation”.
Take `O=C(CCCCCCC(=O)Nc1ccc([C@@H]2OC(c3ccc(CO)cc3)C[C@H](CSc3nc(-c4ccccc4)c(-c4ccccc4)o3)O2)cc1)NO` (some centres unmarked) [tubacin]: the “inhibition of TDAC activity of wild-type HDAC6F” value is “inhibited by TSA (300 nM) or tubacin (1 μM); also recorded: inhibited α-tubulin deacetylation”.
